Some results are limits rather than exact numbers.

For one experiment, the system named is recombinant NL-Rluc virus (NL4-3 with Renilla Luciferase gene) in MT-2 cells. The experiment is described as follows: Inhibition of HIV replication (NL-Rluc luciferase reporter virus, MT-2 cells). The class given is cell-based, human immunodeficiency virus (HIV). To be noted: NL43, 120 h, read-out: Activity. On the technique in general: In a reporter assay the amount or activity of a reporter protein is the signal.
Regarding `Cc1nc2c(C)c(-c3cccc(-c4ccc5c(cnn5C)c4)c3)nn2c(-c2cc(F)c3c(c2C)CCCO3)c1[C@H](OC(C)(C)C)C(=O)O` [Example 161, (2S)-2-(tert-Butoxy)-2-(7-(8-fluoro-5-methylchroman-6-yl)-3,5-dimethyl-2-(3-(1-methyl-1H-indazol-5-yl)phenyl)pyrazolo[1,5-a]pyrimidin-6-yl)acetic acid], the EC50 is less than 0.1 µM.
Turning to `Cc1nc2c(C)c(-c3cccc(-c4ccccc4F)c3)nn2c(-c2cc(F)c3c(c2C)CCCO3)c1[C@H](OC(C)(C)C)C(=O)O` [Example 162, (2S)-2-(tert-Butoxy)-2-(7-(8-fluoro-5-methylchroman-6-yl)-2-(2′-fluoro-[1,1′-biphenyl]-3-yl)-3,5-dimethylpyrazolo[1,5-a]pyrimidin-6-yl)acetic acid], the EC50 was less than 0.1 µM.
Turning to `Cc1nc2c(C)c(-c3ccccc3)nn2c(-c2cc(F)c3c(c2C)CCCO3)c1[C@H](OC(C)(C)C)C(=O)O` [Example 163, (2S)-2-(tert-Butoxy)-2-(7-(8-fluoro-5-methylchroman-6-yl)-3,5-dimethyl-2-phenylpyrazolo[1,5-a]pyrimidin-6-yl)acetic acid], the EC50 is less than 0.1 µM.
The same measure, in the same setting: the figure for `Cc1nc2c(C)c(-c3cccc(-c4cccc(F)c4)c3)nn2c(-c2cc(F)c3c(c2C)CCCO3)c1[C@H](OC(C)(C)C)C(=O)O` [Example 164, (2S)-2-(tert-Butoxy)-2-(7-(8-fluoro-5-methylchroman-6-yl)-2-(3′-fluoro-[1,1′-biphenyl]-3-yl)-3,5-dimethylpyrazolo[1,5-a]pyrimidin-6-yl)acetic acid] is less than 0.1 µM; for `Cc1cc(-c2cccc(-c3cc4nc(C)c([C@H](OC(C)(C)C)C(=O)O)c(-c5cc(F)c6c(c5C)CCCO6)n4n3)c2)ccc1F` [Example 165, (2S)-2-(tert-Butoxy)-2-(2-(4′-fluoro-3′-methyl-[1,1′-biphenyl]-3-yl)-7-(8-fluoro-5-methylchroman-6-yl)-5-methylpyrazolo[1,5-a]pyrimidin-6-yl)acetic acid] it is less than 0.1 µM; for `Cc1cc(F)ccc1-c1cccc(-c2cc3nc(C)c([C@H](OC(C)(C)C)C(=O)O)c(-c4cc(F)c5c(c4C)CCCO5)n3n2)c1` [Example 166, (2S)-2-(tert-Butoxy)-2-(2-(4′-fluoro-2′-methyl-[1,1′-biphenyl]-3-yl)-7-(8-fluoro-5-methylchroman-6-yl)-5-methylpyrazolo[1,5-a]pyrimidin-6-yl)acetic acid] it is less than 0.1 µM.
Same read-out and setting: the result for `Cc1ncccc1-c1cccc(-c2cc3nc(C)c([C@H](OC(C)(C)C)C(=O)O)c(-c4cc(F)c5c(c4C)CCCO5)n3n2)c1` [Example 167, (2S)-2-(tert-Butoxy)-2-(7-(8-fluoro-5-methylchroman-6-yl)-5-methyl-2-(3-(2-methylpyridin-3-yl)phenyl)pyrazolo[1,5-a]pyrimidin-6-yl)acetic acid] reads less than 0.1 µM; that for `COc1cc(-c2cccc(-c3cc4nc(C)c([C@H](OC(C)(C)C)C(=O)O)c(-c5cc(F)c6c(c5C)CCCO6)n4n3)c2)ccn1` [Example 168, (2S)-2-(tert-Butoxy)-2-(7-(8-fluoro-5-methylchroman-6-yl)-2-(3-(2-methoxypyridin-4-yl)phenyl)-5-methylpyrazolo[1,5-a]pyrimidin-6-yl)acetic acid], less than 0.1 µM.
With `COc1ccc(-c2cccc(-c3cc4nc(C)c([C@H](OC(C)(C)C)C(=O)O)c(-c5cc(F)c6c(c5C)CCCO6)n4n3)c2)cn1` [Example 169, (2S)-2-(tert-Butoxy)-2-(7-(8-fluoro-5-methylchroman-6-yl)-2-(3-(6-methoxypyridin-3-yl)phenyl)-5-methylpyrazolo[1,5-a]pyrimidin-6-yl)acetic acid], the EC50 was less than 0.1 µM.
On the same count and under the same terms, the result for `Cc1cc(-c2cccc(-c3cc4nc(C)c([C@H](OC(C)(C)C)C(=O)O)c(-c5cc(F)c6c(c5C)CCCO6)n4n3)c2)ccn1` [Example 170, (2S)-2-(tert-Butoxy)-2-(7-(8-fluoro-5-methylchroman-6-yl)-5-methyl-2-(3-(2-methylpyridin-4-yl)phenyl)pyrazolo[1,5-a]pyrimidin-6-yl)acetic acid] reads less than 0.1 µM.
Still for that read-out and setting: the result for `Cc1nc2cc(-c3cccc(-c4cncc(F)c4)c3)nn2c(-c2cc(F)c3c(c2C)CCCO3)c1[C@H](OC(C)(C)C)C(=O)O` [Example 171, (2S)-2-(tert-Butoxy)-2-(7-(8-fluoro-5-methylchroman-6-yl)-2-(3-(5-fluoropyridin-3-yl)phenyl)-5-methylpyrazolo[1,5-a]pyrimidin-6-yl)acetic acid] reads less than 0.1 µM.
For `Cc1nc2cc(-c3cccc(-c4cnc5ccccc5c4)c3)nn2c(-c2cc(F)c3c(c2C)CCCO3)c1[C@H](OC(C)(C)C)C(=O)O` [Example 172, (2S)-2-(tert-Butoxy)-2-(7-(8-fluoro-5-methylchroman-6-yl)-5-methyl-2-(3-(quinolin-3-yl)phenyl)pyrazolo[1,5-a]pyrimidin-6-yl)acetic acid], the EC50 is less than 0.1 µM.
Consider `Cc1nc2cc(-c3cccc(-c4ccccc4C(F)(F)F)c3)nn2c(-c2cc(F)c3c(c2C)CCCO3)c1[C@H](OC(C)(C)C)C(=O)O` [Example 173, (2S)-2-(tert-Butoxy)-2-(7-(8-fluoro-5-methylchroman-6-yl)-5-methyl-2-(2′-(trifluoromethyl)-[1,1′-biphenyl]-3-yl)pyrazolo[1,5-a]pyrimidin-6-yl)acetic acid], for which the EC50 was less than 0.1 µM.
Still for that read-out and setting: the result for `Cc1nc2cc(-c3cccc(-c4cnn(-c5ccccc5)c4C)c3)nn2c(-c2cc(F)c3c(c2C)CCCO3)c1[C@H](OC(C)(C)C)C(=O)O` [Example 174, (2S)-2-(tert-Butoxy)-2-(7-(8-fluoro-5-methylchroman-6-yl)-5-methyl-2-(3-(5-methyl-1-phenyl-1H-pyrazol-4-yl)phenyl)pyrazolo[1,5-a]pyrimidin-6-yl)acetic acid] reads less than 0.1 µM; that for `Cc1nc2cc(-c3cccc(-c4ccnc(N5CCN(C)CC5)c4)c3)nn2c(-c2cc(F)c3c(c2C)CCCO3)c1[C@H](OC(C)(C)C)C(=O)O` [Example 175, (2S)-2-(tert-Butoxy)-2-(7-(8-fluoro-5-methylchroman-6-yl)-5-methyl-2-(3-(2-(4-methylpiperazin-1-yl)pyridin-4-yl)phenyl)pyrazolo[1,5-a]pyrimidin-6-yl)acetic acid], less than 0.1 µM.

Still in this experiment, the particulars now being: NL43, 120 h, read-out: EC50 μM.
As to `Cc1nc2c(C)c(-c3ccccc3)nn2c(-c2cc(F)c3c(c2C)CCCO3)c1[C@H](OC(C)(C)C)C(=O)O` [Example 163, (2S)-2-(tert-Butoxy)-2-(7-(8-fluoro-5-methylchroman-6-yl)-3,5-dimethyl-2-phenylpyrazolo[1,5-a]pyrimidin-6-yl)acetic acid], the EC50 stood at 0.2 µM.

These data come from US8633200B2, “Inhibitors of human immunodeficiency virus replication” (priority 2010, dated 2014).
